Reference: patent US9567324B2, “Substituted nicotinamide derivatives as kinase inhibitors” (Allergan, Inc., priority 2013, dated 2017)

How the values were obtained:
[1] = molecular target: PDGFRβ (purified cytoplasmic domain PDGFR-b protein) (Homo sapiens (Human), UniProt P09619); assay: PDGFRβ Kinase Assay; assay type: biochemical; conditions: for IC50: 36 μM ATP, poly-Glu-Tyr (4:1) substrate, ELISA read-out, read-out: PDGFRβ Enzyme Assay (IC50 nM)
Experimental: Biochemical PDGFRβ kinase assays were performed in 96 well microtiter plates that were coated overnight with 75 μg of poly-Glu-Tyr (4:1) in 10 mM Phosphate Buffered Saline (PBS), pH 7.4. The coated plates were washed with 2 mls per well PBS+0.05% Tween-20 (PBS-T), blocked by incubation with PBS containing 1% BSA, then washed with 2 mls per well PBS-T prior to starting the reaction. Reactions were carried out in 100 μL reaction volumes containing 36 μM ATP in kinase buffer (50 mM Hepes buffer pH 7.4, 20 mM MgCl2, 0.1 mM MnCl2 and 0.2 mM Na3VO4). Test compounds were reconstituted in 100% DMSO and added to the reaction to give a final DMSO concentration of 5%. Reactions were initiated by the addition 20 ul per well of kinase buffer containing 200-300 ng purified cytoplasmic domain PDGFR-b protein (Millipore). Following a 60 minute incubation at 30° C., the reactions were washed 2 mls per well PBS-T. 100 μl of a monoclonal anti-phosphotyrosine antibody-peroxidase conjugate diluted 1:10,000 in PBS-T was added to the wells for 30 minutes. Following a 2 mls per well wash with PBS-Tween-20, 100 μl of O-Phenylenediamine Dihydrochloride in phosphate-citrate buffer, containing urea hydrogen peroxide, was added to the wells for 7-10 minutes as a colorimetric substrate for the peroxidase. The reaction was terminated by the addition of 100 μl of 2.5N H2SO4 to each well and read using a microplate ELISA reader set at 492 nm. IC50 values for compound inhibition were calculated directly from graphs of optical density (arbitrary units) versus compound concentration following subtraction of blank values.

PDGFRβ = PDGFRβ (Homo sapiens (Human), UniProt P09619); assay: PDGFRβ Cellular Assay (FLIPR, PDGF-induced intracellular calcium in NHDF-Ad); assay type: cell-based; conditions: PDGF-BB stimulation (30 ng/mL), Fluo-4 FLIPR
Experimental: Automated FLIPR (Fluorometric Imaging Plate Reader) technology was used to screen for inhibitors of PDGF-induced increases in intracellular calcium levels in fluorescent dye loaded […] cells. NHDF-Ad (Normal Human Dermal Fibroblasts, Adult; Lonza) were seeded in 384-well fibronectin coated black-walled plates overnight @ 37° C./5% CO2. Cells were loaded with calcium indicator Fluo-4 for 45 minutes at 37° C. Cells were washed 2 times (E1×405, Biotek Instruments) to remove extracellular dye. For screening, cells were pre-incubated with test agents for 30 minutes, at a single concentration (10 uM) or at concentrations ranging from 0.0001 to 10.0 uM followed by PDGF-BB stimulation (30 ng/mL). Changes in fluorescence at 516 nm were measured simultaneously in all 384 wells using a cooled CCD camera. Data were generated by determining max-min fluorescence levels for unstimulated, stimulated, and drug treated samples. IC50 values for test compounds were calculated from % inhibition of PDGF-BB stimulated responses in the absence of inhibitor.

PDGFRβ (purified cytoplasmic domain PDGFR-b protein), sequence (P09619 554-1106): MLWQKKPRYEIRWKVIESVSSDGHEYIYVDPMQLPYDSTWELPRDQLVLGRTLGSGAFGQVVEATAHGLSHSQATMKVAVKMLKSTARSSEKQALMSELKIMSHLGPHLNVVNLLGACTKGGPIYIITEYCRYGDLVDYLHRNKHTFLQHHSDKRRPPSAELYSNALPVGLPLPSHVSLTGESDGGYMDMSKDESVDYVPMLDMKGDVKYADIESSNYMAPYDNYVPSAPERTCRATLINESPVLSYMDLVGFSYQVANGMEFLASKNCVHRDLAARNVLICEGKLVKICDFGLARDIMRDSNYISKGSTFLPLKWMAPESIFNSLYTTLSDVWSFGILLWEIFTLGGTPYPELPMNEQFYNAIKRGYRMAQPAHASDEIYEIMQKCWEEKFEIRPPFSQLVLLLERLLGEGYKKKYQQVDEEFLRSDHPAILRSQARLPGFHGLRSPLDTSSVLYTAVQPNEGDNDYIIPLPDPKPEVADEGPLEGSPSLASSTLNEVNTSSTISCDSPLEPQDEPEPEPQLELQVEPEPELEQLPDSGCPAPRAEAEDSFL
PDGFRβ, sequence (P09619 33-1106): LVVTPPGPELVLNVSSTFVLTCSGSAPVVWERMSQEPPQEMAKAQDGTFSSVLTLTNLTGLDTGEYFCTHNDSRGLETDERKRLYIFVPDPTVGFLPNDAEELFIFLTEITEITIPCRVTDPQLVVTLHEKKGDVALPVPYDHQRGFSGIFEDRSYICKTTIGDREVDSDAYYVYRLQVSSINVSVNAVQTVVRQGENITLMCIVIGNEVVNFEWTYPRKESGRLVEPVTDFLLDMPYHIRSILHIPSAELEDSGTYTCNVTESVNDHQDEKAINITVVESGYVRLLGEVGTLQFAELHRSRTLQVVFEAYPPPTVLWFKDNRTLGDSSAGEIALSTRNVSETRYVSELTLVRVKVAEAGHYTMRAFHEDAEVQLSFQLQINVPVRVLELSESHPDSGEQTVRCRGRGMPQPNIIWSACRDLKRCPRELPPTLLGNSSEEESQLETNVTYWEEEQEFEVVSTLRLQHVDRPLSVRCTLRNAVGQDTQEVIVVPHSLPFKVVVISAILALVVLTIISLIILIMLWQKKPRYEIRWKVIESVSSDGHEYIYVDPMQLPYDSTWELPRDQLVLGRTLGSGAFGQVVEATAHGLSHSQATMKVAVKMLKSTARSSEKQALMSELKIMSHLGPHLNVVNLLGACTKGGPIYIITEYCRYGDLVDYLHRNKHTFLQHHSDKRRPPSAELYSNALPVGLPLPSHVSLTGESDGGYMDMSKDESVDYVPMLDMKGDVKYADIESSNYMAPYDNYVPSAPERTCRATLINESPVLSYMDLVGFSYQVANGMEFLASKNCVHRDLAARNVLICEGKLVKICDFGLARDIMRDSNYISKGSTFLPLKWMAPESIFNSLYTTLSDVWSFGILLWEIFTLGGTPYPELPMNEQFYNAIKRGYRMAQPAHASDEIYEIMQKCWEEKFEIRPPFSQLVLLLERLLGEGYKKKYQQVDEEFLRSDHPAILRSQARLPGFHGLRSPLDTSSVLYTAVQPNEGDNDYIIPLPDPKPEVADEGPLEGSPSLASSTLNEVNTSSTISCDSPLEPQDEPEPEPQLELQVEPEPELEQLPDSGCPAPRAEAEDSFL

Structure (SMILES)	IC50 [1] [nM]	activity/potency at the PDGFRβ receptor (in words) [1]	IC50 (PDGFRβ) [nM]
COc1cccc(NC(=O)c2cccc(C#Cc3cc(C(=O)N=S4(=O)CCOCC4)cnc3N)c2)c1 [Example 25, 6-amino-5-[(3-{[(3-methoxyphenyl)amino]carbonyl}phenyl)ethynyl]-N-(4-oxido-1,4λ^4-oxathian-4-ylidene)nicotinamide]	19	–	–
Nc1ncc(C(=O)N=S2(=O)CCOCC2)cc1C#Cc1cccc(C(=O)Nc2ccc(Cl)c(C(F)(F)F)c2)c1 [Example 23, 6-amino-5-{[3-({[4-chloro-3-(trifluoromethyl)phenyl]amino}carbonyl)phenyl]ethynyl}-N-(4-oxido-1,4λ^4-oxathian-4-ylidene)nicotinamide]	13	–	–
Cc1ccc(F)c(C(=O)Nc2cccc(C#Cc3cc(C(=O)N=S4(=O)CCN(C(N)=O)CC4)cnc3N)c2)c1 [Example 18, 1-({[6-Amino-5-({3-[(2-fluoro-5-methylbenzoyl)amino]phenyl}ethynyl)pyridin-3-yl]carbonyl}imino)-1λ^4,4-thiazinane-4-carboxamide 1-oxide]	7	–	–
Cc1ccc(F)c(C(=O)Nc2cccc(C#Cc3cc(C(=O)N=S4(=O)CCOCC4)cnc3N)c2)c1 [Example 21, 6-amino-5-({3-[(2-fluoro-5-methylbenzoyl)amino]phenyl}ethynyl)-N-(4-oxido-1,4λ^4-oxathian-4-ylidene)nicotinamide]	24	–	–
Cc1ccoc1C(=O)Nc1cccc(C#Cc2cc(C(=O)N=S3(=O)CCN(C(=O)OC(C)(C)C)CC3)cnc2N)c1 [Example 13, tert-Butyl 1-({[6-amino-5-({3-[(3-methyl-2-furoyl)amino]phenyl}ethynyl)pyridin-3-yl]carbonyl}imino)-1λ^4,4-thiazinane-4-carboxylate 1-oxide]	–	greatest potency	–
Cc1ccc(F)c(NC(=O)c2cccc(C#Cc3cc(C(=O)N=S4(=O)CCOCC4)cnc3N)c2)c1 [Example 22, 6-amino-5-[(3-{[(2-fluoro-5-methylphenyl)amino]carbonyl}phenyl)ethynyl]-N-(4-oxido-1,4λ^4-oxathian-4-ylidene)nicotinamide]	–	–	17
Cc1ccoc1C(=O)Nc1cccc(C#Cc2cncc(C(=O)N=S3(=O)CCN(C(N)=O)CC3)c2)c1 [Example 3, 1-({[5-({3-[(3-Methyl-2-furoyl)amino]phenyl}ethynyl)pyridin-3-yl]carbonyl}imino)-1λ^4,4-thiazinane-4-carboxamide 1-oxide]	–	greatest potency	–
Cc1ccc(F)c(C(=O)Nc2cccc(C#Cc3cc(C(=O)N=S4(=O)CCNCC4)cnc3N)c2)c1 [Example 17, 6-Amino-5-({3-[(2-fluoro-5-methylbenzoyl)amino]phenyl}ethynyl)-N-(1-oxido-1λ^4,4-thiazinan-1-ylidene)nicotinamide]	7	greatest potency	–
Cc1ccoc1C(=O)Nc1cccc(C#Cc2cc(C(=O)N=S3(=O)CCOCC3)cnc2N)c1 [Example 20, 6-amino-5-({3-[(3-methyl-2-furoyl)amino]phenyl}ethynyl)-N-(4-oxido-1,4λ^4-oxathian-4-ylidene)nicotinamide]	51	–	31
CC(C)(C)c1cc(NC(=O)c2cccc(C#Cc3cc(C(=O)N=S4(=O)CCOCC4)cnc3N)c2)no1 [Example 24, 6-amino-5-[(3-{[(5-tert-butylisoxazol-3-yl)amino]carbonyl}phenyl)ethynyl]-N-(4-oxido-1,4λ^4-oxathian-4-ylidene)nicotinamide]	10	best activity	–
Cc1ccoc1C(=O)Nc1cccc(C#Cc2cncc(C(=O)N=S3(=O)CCOCC3)c2)c1 [Example 19, 5-({3-[(3-methyl-2-furoyl)amino]phenyl}ethynyl)-N-(4-oxido-1,4λ^4-oxathian-4-ylidene)nicotinamide]	23	–	19
CCOC(=O)CNC(=O)N1CCS(=O)(=NC(=O)c2cncc(C#Cc3cccc(NC(=O)c4occc4C)c3)c2)CC1 [Example 11, Ethyl({[1-({[5-({3-[(3-methyl-2-furoyl)amino]phenyl}ethynyl)pyridin-3-yl]carbonyl}imino)-1-oxido-1λ^4,4-thiazinan-4-yl]carbonyl}amino)acetate]	–	greatest potency	–
Cc1ccc(F)c(C(=O)Nc2cccc(C#Cc3cc(C(=O)N=S4(=O)CCN(C(=O)OC(C)(C)C)CC4)cnc3N)c2)c1 [Example 16, tert-butyl 1-({[6-Amino-5-({3-[(2-fluoro-5-methylbenzoyl)amino]phenyl}ethynyl)pyridin-3-yl]carbonyl}imino)-1λ^4,4-thiazinane-4-carboxylate 1-oxide]	–	greatest potency	–
